From US7326540B2, “Methods for identifying compounds that modulate stabilization of secretase-associated proteins” (priority 2003, dated 2008)

Columns and labels:
E-cadherin = E-cadherin proteolysis in A431 cells during STS-induced apoptosis (Western blot, C36 antibody); assay type: cell-based, human; conditions: then STS 6 hours
Method: FIG. 11 provides digitized images and graphs showing that apoptosis enhances γ-secretase activity and levels of γ-secretase complex proteins. FIG. 11a: Apoptosis was induced in CAB, CHO-CC99/PS1 and CHO-APP 751/PS1 by STS treatment for 6 hours with or without zVAD (100 μM). Secreted Aβ1−total was measured by ELISA. […] Each bar represents the mean and SD of quadruplicate determinations. FIG. 11b: Western blot analysis with the antibody, A8717, detected endogenous APP-FL and overexpressed C99 in CHO-CC99/PS1cells, while overexpressed APP-FL and C83 were detected in CHO-APP751/PS1 cells. FIG. 11c: A431 human epithelial cells were pre-incubated for 30 min in the absence (−) or presence (+) of zVAD-FMK (100 μM), L-685,458 (0.5 μM) or GM6001 (2.5 μM). Cells were then treated with STS for 6 hours to induce apoptosis, and cell extracts were probed with anti-E-cadherin C36 antibody. FIG. 11d: Protein levels of γ-secretase complex components were monitored by Western blotting employing the anti-nicastrin, Ab14, PNT2, H2D2 antibodies. Densitometry analysis was performed using NIH image software. Each bar represents the mean and SEM of at least three experiments. FIG. 11e: Nicastrin was transiently transfected in the A431 cells. Western blot analysis for E-cadherin and γ-secretase complex component was performed as in FIG. 11c and FIG. 11d β-tubulin was used as loading control.
To confirm that apoptosis/caspase activation increases γ-secretase activity, we next examined the proteolysis of E-cadherin, another γ-secretase substrate (Marambaud, P. et al., Embo J21, 1948-56 (2002)) during apoptosis. We confirmed that caspase activation enhanced the production of E-Cad/CTF1 (Steinhusen, U. et al., J Biol Chem 276, 4972-80 (2001)), E-Cad/CTF2 (Marambaud, P. et al., 2002) (˜2- and 3-fold increase by densitometry analysis, respectively), and generated E-Cad/CTF3 (Marambaud, P. et al., 2002) (FIG. 11c). […]

proteasome = experiment: Proteasome inhibition: BACE and nicastrin protein levels by Western blot in H4 cells; assay type: cell-based, human
Method: Densitometric analysis was performed with NIH image and reported in bar graphs (FIG. 8B).

[1] = tested on: Aβ production in CHO cells overexpressing APP751 and PS1 WT; experiment: Secreted Aβ ELISA in CHO cells overexpressing APP751 and PS1 during induced apoptosis; assay type: cell-based, Chinese Hamster; conditions: etoposide 100 μg/mL, 12 hrs
Method: We examined Aβ generation induced by apoptosis in CHO cell lines. We used CHO cell lines stably overexpressing both APP751 and PS1 WT. For the induction of apoptosis, we used 1 μM staurosporine (STS) in serum free media. Secreted Aβ was measured in the conditioned media of cells treated with STS for 6 hrs using a sensitive ELISA assay [courtesy of Dr. Dennis Selkoe; M. S. Wolfe et al., Nature 398, 513-7 (1999)].
Treatment with either STS for 6 hrs or etoposide for 12 hrs induced from 10 to 20% of cell death assayed by MTT assay, which is a colorimetric short-term suspension culture assay in which the yellow tetrazolium salt (MTT) is reduced in metabolically active cells to form insoluble purple formazan crystals, which are solubilized by the addition of a detergent.
Chinese Hamster Ovary (CHO) cells expressing APP751 and BACE (CAB), CHO cells expressing full-length APP and wild-type PS1 (CHO-APP751/PS1) or expressing C99 and wild-type PS1 (CHO-CC99/PS1), H4 human neuroglioma cells expressing APP751 (H4-APP751), mouse embryonic fibroblast (MEF), embryonic stem (ES) cells, and human epithelial A431 cells were grown as described previously (Marambaud, P. et al., Embo J 21, 1948-56 (2002); Cai, H. et al., Nat Neurosci 4, 233-4 (2001); Sato, N. et al., Nat Cell Biol 2, 863-70 (2000); Puglielli, L., Ellis, B. C., Saunders, A. J. & Kovacs, D. M., J Biol Chem 278, 19777-83 (2003); Wolfe, M. S. et al., Nature 398, 513-7 (1999)). For the induction of apoptosis, we used staurosporine or etoposide (Calbiochem (EMD Biosciences, San Diego, Calif.)). For Aβ measurements, cells were seeded at the density of 0.5×10^6 cells per well in 6 well plates. After 48 hours, cells were treated with either STS (1 μM) for 6 hours. […] For time-course experiments, cells were seeded at the density of 2×10^6 cells per 100 mm dish and treated with STS (1 μM) or etoposide (100 μg/mL). At different time points (0, 3, 6, 9, 12 and 24 hours), the cells were scraped, centrifuged and then lysed in buffer containing 1% NP40. Western blot analysis was performed as previously described (Tesco, G., Koh, Y. H. & Tanzi, R. E., J Biol Chem 278, 46074-80 (2003)). Densitometry analysis was performed on a Macintosh computer using the public domain NIH Image program (developed at the U.S. National Institutes of Health and available on the Internet at http://rsb.info.nih.gov/nih-image/).
Secreted Aβ1-total was measured in the conditioned media of untreated cells or of cells treated with STS or STS plus zVAD using a sensitive ELISA (Wolfe, M. S. et al., Nature 398, 513-7 (1999). At least three different experiments were carried out and each experiment was performed at least in triplicate.

BACE = BACE protein levels by Western blot and densitometry in CAB cells; assay type: cell-based, Chinese Hamster; conditions: etoposide (ETO) treatment, CAB cells
Method: Chinese Hamster Ovary (CHO) cells expressing APP751 and BACE (CAB), CHO cells expressing full-length APP and wild-type PS1 (CHO-APP751/PS1) or expressing C99 and wild-type PS1 (CHO-CC99/PS1), H4 human neuroglioma cells expressing APP751 (H4-APP751), mouse embryonic fibroblast (MEF), embryonic stem (ES) cells, and human epithelial A431 cells were grown as described previously (Marambaud, P. et al., Embo J 21, 1948-56 (2002); Cai, H. et al., Nat Neurosci 4, 233-4 (2001); Sato, N. et al., Nat Cell Biol 2, 863-70 (2000); Puglielli, L., Ellis, B. C., Saunders, A. J. & Kovacs, D. M., J Biol Chem 278, 19777-83 (2003); Wolfe, M. S. et al., Nature 398, 513-7 (1999)). For the induction of apoptosis, we used staurosporine or etoposide (Calbiochem (EMD Biosciences, San Diego, Calif.)). For Aβ measurements, cells were seeded at the density of 0.5×10^6 cells per well in 6 well plates. After 48 hours, cells were treated with either STS (1 μM) for 6 hours. In order to inhibit caspase activation a sister plate of cells was pre-treated with zVAD ([…], Enzyme Systems Products) for 1 hour before STS treatment. For time-course experiments, cells were seeded at the density of 2×10^6 cells per 100 mm dish and treated with STS (1 μM) or etoposide (100 μg/mL). At different time points (0, 3, 6, 9, 12 and 24 hours), the cells were scraped, centrifuged and then lysed in buffer containing 1% NP40. Western blot analysis was performed as previously described (Tesco, G., Koh, Y. H. & Tanzi, R. E., J Biol Chem 278, 46074-80 (2003)). Densitometry analysis was performed on a Macintosh computer using the public domain NIH Image program (developed at the U.S. National Institutes of Health and available on the Internet at http://rsb.info.nih.gov/nih-image/).
It has been previously shown that overexpression of BACE enhances β-secretase cleavage of APP leading to the accumulation of intracellular C99 (Vassar, R. et al., Science 286, 735-41 (1999)). We first asked whether apoptosis/caspase activation leads to accumulation of C99 owing to increased β-secretase activity.

CNC(=O)[C@H](Cc1c[nH]c2ccccc12)NC(=O)[C@@H](CC(=O)NO)CC(C)C [GM6001]
generation of E-Cad/CTF1 (E-cadherin; GM6001 2.5 μM pre-incubated 30 min): inhibited

CC(C)C[C@H](NC(=O)[C@H](Cc1ccccc1)C[C@@H](O)[C@H](Cc1ccccc1)NC(=O)OC(C)(C)C)C(=O)N[C@@H](Cc1ccccc1)C(N)=O [L-685,458]
generation of E-Cad/CTF2 (E-cadherin; L-685,458 0.5 μM pre-incubated 30 min): inhibited

CC(=O)N[C@@H](CSC(=O)[C@]1([C@@H](O)C(C)C)NC(=O)[C@H](C)[C@@H]1O)C(=O)O [Lactacystin, lactacystin]
protein levels of nicastrin (proteasome; Lactacystin 10 μM for 24 hrs, medium containing 10% serum): increased | BACE full length and BACE-CTF levels (proteasome; Lactacystin treatment, H4 cells): did not affect

COc1cc([C@@H]2c3cc4c(cc3[C@@H](O[C@@H]3O[C@@H]5CO[C@@H](C)O[C@H]5[C@H](O)[C@H]3O)[C@H]3COC(=O)[C@H]23)OCO4)cc(OC)c1O [etoposide]
Secreted Aβ1-42 [1]: increased | Secreted Aβtotal [1]: increased | BACE protein levels (BACE): increase
